Assay results reported in patent US20250177324A1, “A[…], AND PREPARATION METHOD THEREFOR AND USE THEREOF” (SHANGHAI ZHIGEN PHARMACEUTICAL & TECHNOLOGY CO. LTD., priority 2022, published 2025).
Counter-ions that a name gives are not always drawn. Like-named read-outs stand apart in the source and are kept apart here.

What was measured:
C57 mice = test: Forced swim test of oral administration in mice (antidepressant activity); format: in vivo; settings: for inhibition in vivo at 20 mg/kg: Mus musculus, po
Protocol: To investigate the effects of different compounds on depression-like behavior in C57 mice by single oral administration of 20 mg/kg for 1 h and 24 h followed by forced swimming experiment, respectively.
The experimental animals were 6-week-old C57 mice, male, C57 breed mice purchased from Shanghai Slaughter Laboratory Animal Co. Ltd, weighing 20.45±0.19 g. The animals arrived at the Animal Breeding Center of the Shanghai Institute of Pharmaceutical Sciences, Chinese Academy of Sciences (Animal Production License: SCXK9[Shanghai]2004-0002, Use License: SYXK [Shanghai]2003-0029) before the experiments and were acclimated to the animal facilities for more than 3 days, 6 animals/cage were feed. The feeding environment was room temperature 23±0.2° C. and 12/12 h day/night alternating light and dark. Prior to behavioral testing, animals were moved to the behavioral testing room 2 hours in advance to acclimatize them to the environment and reduce their nervousness.
Preparation of the test material: the test compounds were weighed and dissolved in 0.9% NaCl solution, mixed well, and prepared into 1 mg/ml and 2 mg/ml solution for use, respectively.
24 h prior to drug administration, mice were placed in a cylindrical tank to acclimatize to the water environment for 10 min. On the day of the behavioral test, the animals were administered the drug once, by gavage/intraperitoneal injection at 1 h and 24 h prior to the behavioral test, respectively (as shown in Table 1).
The antidepressant effect of the compounds was evaluated by their ability to cause a reduction in the immobility time of the animals in the forced swim test compared to the blank group.

[1] = Solid-state chemical stability under different storage conditions (liquid chromatography); format: physicochemical; settings: for Stability of solid state compound, 0 Days (%): liquid chromatography
Protocol: The HPLC conditions were as follows:
Configuration of test solution: appropriate amount of sample was dissolved and diluted with a diluent (0.03 mol/L phosphate buffer-acetonitrile (80:20)) to make 1 mg/mL solution.
Chromatographic conditions: according to the high performance liquid chromatography (Chinese Pharmacopoeia 2020 version of the four general 0512) test, using octadecyl-bonded silica gel (Agilent Eclipse Plus C18, 4.6 mm*250 mm, 5.0 μm, P/N for 959990-902 or a chromatographic column with equivalent performance) as a filler; 0.03 mol/L phosphate buffer (4.08 g of potassium dihydrogen phosphate was dissolved in 1000 ml of water and shaken well) was used as mobile phase A and acetonitrile as mobile phase B at a flow rate of 1 ml/min, the column temperature was 30° C., the detection wavelength was 220 nm, the injection volume was 10 ul, and the sample plate was controlled to 8° C. and running for 65 min. Gradient elution was performed according to the following table: […]
Configuration of test solution: appropriate amount of the product was dissolved and diluted with a diluent (0.1% phosphoric acid-acetonitrile (80:20)) to make 1 mg/mL solution.
Chromatographic conditions: according to the high performance liquid chromatography (Chinese Pharmacopoeia 2020 version of the four general 0512) test, using octadecyl bonded silica gel (Agilent Eclipse Plus C18, 4.6 mm*250 mm, 5.0 μm, P/N 959990-902 or a chromatographic column with equivalent performance) as a filler; 0.1% phosphate buffer (1 ml of phosphoric acid in 1000 ml of water and shake well) as mobile phase A, acetonitrile as mobile phase B, flow rate of 1 ml/min, column temperature of 30° C., detection wavelength of 220 nm, injection volume of 10 ul, running for 48 minutes. Gradient elution was performed according to the following table: […]

[2] = Brain tissue distribution study in rats; format: in vivo; settings: SD rats, 10 mg/kg gavage
Protocol: Healthy male SD rats, randomly grouped with 3 rats in each group, were given the test compounds by gavage.
Each test compound was dissolved in saline to form a certain concentration solution for administration.
Fasting but not abstaining from water for 12-14 hours on the day before administration, and food was given 4 h after administration.
Brain tissues were collected after the animals were bled, cleaned, and homogenized with 50% ice methanol 1:4 (m/v). The collection time points were 5 min, 10 min, 30 min, and 2 h after the administration of subjects; 30.0 μL of tissue samples were taken (the samples were taken from the refrigerator at −80° C. and vortexed for 30 s after natural dissolution at room temperature) into 1.5 mL centrifugal tubes, and 300.0 μL of the internal standard solution (30 ng/mL buspirone in acetonitrile) was added; the samples were vortexed for 60 s, and centrifuged for 3 min (the centrifugal force was 12,000 rpm). 75 μL of the supernatant was transferred to a 96-well plate containing an equal volume of water, shaken to mix well and then sampled for LC-MS/MS analysis, the sample volume is 10 μL.

[3] = reduction of immobility time vs blank group, single gavage 20 mg/kg, test 1 h after dosing, read-out: 1 h inhibition (%)
[4] = reduction of immobility time vs blank group, single gavage 20 mg/kg, test 24 h after dosing, read-out: 24 h inhibition (%)

| SMILES | inhibition in vivo at 20 mg/kg (C57 mice; [3]) | inhibition in vivo at 20 mg/kg (C57 mice; [4]) | Stability of solid state compound, 0 Days (%) ([1]; 40° C., 75% RH) | Stability of solid state compound, 10 Days (%) ([1]; 40° C., 75% RH) | Stability of solid state compound, 30 Days (%) ([1]; 40° C., 75% RH) | Stability of solid state compound, 5 Days (%) ([1]; 40° C., 75% RH) | further results |
| --- | --- | --- | --- | --- | --- | --- | --- |
| C[C@@]1(O)CCC[C@@](N)(c2ccc(C(F)(F)F)cc2)C1=O.Cl [Compound 52, (2R, 6R)-2-amino-6-hydroxy-6-methyl-2-(4-(trifluoromethyl)phenyl)cyclohexan-1-one hydrochloride] | 29.5 ± 1.1% | 25.6 ± 2.1% | 99.89% | 99.89% | 99.90% |  | Stability of solid state compound, 60 Days (%) ([1]; 40° C., 75% RH): 99.88%; Stability of solid state compound, 180 Days (%) ([1]; 40° C., 75% RH, 180 days): 99.82% |
| CC1(C)CC[C@@](N)(c2ccccc2Cl)C(=O)[C@@H]1O [Comparative compound 4, reference compound] | 2.9 ± 1% | -17.2 ± 2% |  |  |  |  |  |
| N[C@@]1(c2ccccc2Cl)CC2(CC2)C[C@@H](O)C1=O [Comparative compound 5, reference compound] | 22.8 ± 2.5% | 19.1 ± 2.1% |  |  |  |  |  |
| C[C@]1(O)CCC[C@@](N)(c2ccc(C(F)(F)F)cc2)C1=O.Cl [Compound 54, (2R, 6S)-2-amino-6-hydroxy-6-methyl-2-(4-(trifluoromethyl)phenyl)cyclohexan-1-one hydrochloride] | 33 ± 2.5% | 38.7 ± 3.3% | 99.27% | 99.23% |  |  | Stability of solid state compound, 60 Days (%) ([1]; 40° C., 75% RH): 99.20% |
| C[C@@H]1CC[C@@](N)(c2ccccc2Cl)C(=O)[C@@H]1O [Comparative compound 3, reference compound] | 22.6 ± 2.7% | 23.7 ± 3.2% |  |  |  |  |  |
| CCN[C@@]1(c2ccc(C(F)(F)F)cc2)CCC[C@](C)(O)C1=O.Cl [Compound 77, (2R,6S)-2-ethylamino-6-hydroxy-6-methyl-2-(4-(trifluoromethyl)phenyl)cyclohexan-1-one hydrochloride] | 69.8 ± 1.6% | 44.3 ± 3.5% |  |  |  |  | Stability of solid state compound, 0 Days (%) ([1]; 25° C., 60% RH): 99.70%; Stability of solid state compound, 10 Days (%) ([1]; 25° C., 60% RH): 99.69%; Stability of solid state compound, 30 Days (%) ([1]; 25° C., 60% RH): 99.70% |
| CN[C@@]1(c2cccc(OC(F)(F)F)c2F)CCC[C@](C)(O)C1=O [Compound 57, (2R,6S)-2-(2-fluoro-3-(trifluoromethoxy)phenyl)-6-hydroxy-6-methyl-2-(methylamino)cyclohexan-1-one hydrochloride] | 42.2 ± 1.8% | 36.5 ± 3% |  |  |  |  |  |
| Cl.[2H]C([2H])([2H])N[C@@]1(c2ccc(C(F)(F)F)cc2)CCC[C@](C)(O)C1=O [Compound 76, (2S,6R)-2-hydroxy-2-methyl-6-trideutero-methylamino-6-(4-(trifluoromethyl)phenyl)cyclohexan-1-one hydrochloride] | 65.2 ± 0.8% | 47.1 ± 3.2% | 99.88% | 99.65% | 99.84% |  |  |
| CNC1(c2cccc(F)c2F)CCCC(C)(O)C1=O.Cl (stereo not drawn) [Compound 65, 2-(2,3-difluorophenyl)-6-hydroxy-6-methyl-2-methylaminocyclohexan-1-one hydrochloride] | 26.4 ± 1.1% | 37.9 ± 2.3% | 99.54% | 99.32% | 99.22% | 99.37% |  |
| CNCCC(Oc1ccc(C(F)(F)F)cc1)c1ccccc1 (stereo not drawn) [Fluoxetine, reference compound] | 2.4 ± 1.1% | 2.3 ± 3.1% |  |  |  |  | antidepressant effect in the forced swim test (in words) (C57 mice; oral administration, 1 h and 24 h): did not show antidepressant effect |
| CC1(C)C[C@@H](O)C(=O)[C@](N)(c2ccccc2Cl)C1 [Comparative compound 6, reference compound] | 18.2 ± 1.6% | 11.3 ± 2% |  |  |  |  |  |
| CN[C@@]1(c2ccc(C(F)(F)F)cc2)CCC[C@@](C)(O)C1=O.Cl [Compound 71, (2R,6R)-2-hydroxy-2-methyl-6-methylamino-6-(4-(trifluoromethyl)phenyl)cyclohexan-1-one hydrochloride] | 42.4 ± 0.4% | 40.2 ± 1.6% | 99.67% | 99.46% | 99.45% | 99.46% |  |
| N[C@@]1(c2ccccc2Cl)CCC[C@@H](O)C1=O [(2R,6R)-HNK, reference compound] |  |  | 99.18% | 97.85% |  | 98.54% | 1 h inhibition (%) (C57 mice; reduction of immobility time vs blank group, single gavage 20 mg/kg, test 1 h after dosing): 21.1 ± 1.4%; 24 h inhibition (%) (C57 mice; reduction of immobility time vs blank group, single gavage 20 mg/kg, test 24 h after dosing): 24.8 ± 6.9%; brain/plasma ratio [2]: 0.95; AUC0-t brain ([2]; brain): 2480 ng·h/g; Cmax brain ([2]; brain): 1495 ng/g; AUC0-t plasma ([2]; plasma): 2610 ng·h/mL; Cmax plasma ([2]; plasma): 1480 ng/mL |
| CN[C@@]1(c2cccc(OC(F)(F)F)c2)CCC[C@](C)(O)C1=O.Cl [Compound 68, (2S,6R)-2-hydroxy-2-methyl-6-methylamino-6-(3-(trifluoromethoxy)phenyl)cyclohexan-1-one hydrochloride] | 26.2 ± 4.1% | 37.4 ± 0.7% | 99.12% | 99.12% |  | 99.11% |  |
| Cl.N[C@@]1(c2ccc(C(F)(F)F)cc2)CCC[C@@H](O)C1=O [Comparative compound 1, reference compound] | 30.6 ± 3.1% | 35 ± 0.3% | 99.98% | 98.74% | 95.88% | 98.94% | Stability of solid state compound, 60 Days (%) ([1]; 40° C., 75% RH): 91.57% |
